How the values were obtained:
ER-β = molecular target: T1, ER-β (Rattus norvegicus, UniProt Q62986); test: ER-β transactivation in HEK-293 cells; assay type: cell-based
T1 construct: expressed in transfected cells
Method: Rat GR, MR, PR, ER-α and ER-β were individually cloned into a pCR3.1 vector backbone. Sequencing was performed to verify the absence of any mutations. HEK-293 cells were plated at 90,000 cells per well of a 24 well plate in Dulbecco's Minimal Essential Media supplemented with 5% charcoal-stripped FBS. […] Luciferase assays were performed 48 h after transfection. Transcriptional activation values are represented as firefly luciferase normalized to renilla luciferase.

HCI-13 tumors [1] = test: Phospho-proteomics of HCI-13 PDX tumors; design: species or system mice; conditions: mouse, in vivo
Method: Whole tissue lysates were directly prepared from the tissue sections using a 1:1 mixture of T-PER (Tissue Protein Extraction Reagent; Pierce, Rockford, Ill.) and 2× Tris-Glycine SDS Sample Buffer (Invitrogen, Carlsbad, Calif.) supplemented with 5% 2-mercaptoethanol. Samples were boiled for 8 minutes and stored at −80° C. until arrayed.
Samples and standard curves for internal quality assurance were printed onto nitrocellulose-coated slides (Grace Bio-labs, Bend, Oreg.) using an Aushon 2470 arrayer (Aushon BioSystems, Billerica, Mass.). Selected arrays were used to estimate the amount of protein in each sample using a Sypro Ruby Protein Blot Stain (Molecular Probes, Eugene, Oreg.) protocol following manufacturer's instructions (Pin et al. (2014) Curr Protoc Prtein Sci 75, Unit 27 27). Remaining arrays were tested with a single primary antibody using an automated system (Dako Cytomation, Carpinteria, Calif.) as previously described (Baldelli et al. (2015) Oncotarget 6, 32368-32379). Arrays were first incubated with Reblot Antibody stripping solution (Chemicon, Temecula, Calif.), followed by two washes in PBS, and I-block solution (Tropix, Bedford, Mass.) for 4 hours. Arrays were probed with a total of 174 antibodies targeting a wide range of protein kinases and their activation via phosphorylation. Antibodies specificity was tested using standard immunoblotting on a panel of cell lysates. […]
The commercially available Signal Amplification System (CSA; Dako Cytomation) and a streptavidin-conjugated IRDye 680 secondary antibody (LI-COR Biosciences, Lincoln, Nebr.) were used as signal detection methods. Images were acquired on the laser-based PowerScanner (TECAN, Mönnedorf, Switzerland), and data were analyzed using the MicroVigene software Version 5.1 (Vigene Tech, Carlisle, Mass.) as previously described (Baldelli et al. (2015) Oncotarget 6, 32368-32379). […]

MCF-7-GFP cells = assay type: cell-based, human
Excerpt: Tumor microenvironment contains tumor epithelial cells, stromal cells, cancer-associated fibroblasts (CAFs), and endothelial cells. The collective function of these cells promotes the aggressive growth of tumors due to secretion of paracrine factors. The CAFs are important for the sustained growth of cancers, and they differ from normal fibroblasts in their capacity to secrete factors that promote proliferation of cancer cells. […] Medium was collected over a period of 10 days and pooled. CAFs were stained with SRB to evaluate the effect of AR ligands on proliferation.
Conditioned medium was replaced on days 4 and 7 and the cells were stained with SRB to measure viability.

HCI-13 tumors [2] = test: Affymetrix microarray of HCI-13 PDX tumors; design: species or system mice; conditions: mouse, in vivo
Method: RNA from tumors was extracted and verified qualitatively and quantitatively. Total RNA (200 ng/sample; n=4/group) from each sample was amplified and labeled using the WT Plus Kit from Affymetrix and processed according to Affymetrix protocol. The arrays (Human ST2.0, Affymetrix, Santa Clara, Calif.) were washed and stained on Affymetrix Fluidics station 450 and scanned on an Affymetrix GCS 3000 scanner.
Data from microarrays were normalized using Affymetrix Expression Console. Mean, Standard Deviation, and Variance were calculated across the groups. Fold Change from vehicle-treated samples was calculated, and a fold change of 1.5 was used as cutoff Student's t-test was used to determine the significance and a cutoff of p value<0.05 was used for significance discovery. False discovery rate was calculated using Benjamini & Hochberg method, and a cutoff for FDR<0.05 was used to create a significant differential expression list. The gene candidate list was loaded to Ingenuity Pathway Analysis and gene set enrichment analysis (GSEA) performed for further discovery. Microarray experiments were performed at the UTHSC Molecular Resources Center (MRC), and data analysis was performed by the UTHSC Molecular Bioinformatics (mBio) core facility.

T1 sequence (Q62986 whole entry): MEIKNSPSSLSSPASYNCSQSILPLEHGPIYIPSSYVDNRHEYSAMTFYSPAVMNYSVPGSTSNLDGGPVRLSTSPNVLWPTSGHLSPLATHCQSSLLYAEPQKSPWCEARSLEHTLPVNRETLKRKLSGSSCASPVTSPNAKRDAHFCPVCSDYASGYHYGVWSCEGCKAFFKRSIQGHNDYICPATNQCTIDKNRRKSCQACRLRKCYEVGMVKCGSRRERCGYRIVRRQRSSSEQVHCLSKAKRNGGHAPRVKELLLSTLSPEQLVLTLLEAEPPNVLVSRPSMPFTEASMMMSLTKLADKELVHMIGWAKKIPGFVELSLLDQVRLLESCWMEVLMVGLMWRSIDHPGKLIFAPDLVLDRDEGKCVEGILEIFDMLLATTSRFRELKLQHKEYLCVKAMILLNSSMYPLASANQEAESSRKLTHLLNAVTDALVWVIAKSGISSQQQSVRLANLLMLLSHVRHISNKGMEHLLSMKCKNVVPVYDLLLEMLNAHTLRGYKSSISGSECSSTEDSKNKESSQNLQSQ

Row | Compound | 17β-estradiol-induced ER-β activity, antagonist mode (ER-β; co-incubation) | ERβ-mediated transactivation, agonist mode (ER-β; highest tested concentration 1 μM) | expression of proliferation marker Ki67 (HCI-13 tumors [1]) | phosphorylation of oncogenic proteins (pERK, PKC z, RSK3, Ezrin, BCL2, ELF4G, ER) (HCI-13 tumors [1]) | phosphorylation of tumor suppressor proteins (p53, p27, ACC, AR) (HCI-13 tumors [1]) | proliferation of breast cancer CAFs (MCF-7-GFP cells) | proliferation of MCF-7-GFP cells fed conditioned medium from treated CAFs (MCF-7-GFP cells; 10 days) | members of histone group inhibited (HCI-13 tumors [2])
1 | C[C@](O)(COc1ccc(C#N)cc1)C(=O)Nc1ccc(C#N)c(Cl)c1 [Formula VIII, (S)—N-(3-chloro-4-cyanophenyl)-3-(4-cyanophenoxy)-2-hydroxy-2-methylpropanamide] | failed to alter | failed to activate |  |  |  |  |  | 
2 | C[C@](O)(COc1ccc(C#N)cc1)C(=O)Nc1ccc(C#N)c(C(F)(F)F)c1 [Formula IX, (S)—N-(4-Cyano-3-(trifluoromethyl)phenyl)-3-(4-cyanophenoxy)-2-hydroxy-2-methylpropanamide] |  |  | inhibited the expression | inhibited the phosphorylation | increased the phosphorylation | neither AR agonist, DHT and Formula IX, nor AR antagonist enzalutamide, affected the proliferation | inhibited the proliferation | About 17

Reference: patent publication US20220257552A1, “METHODS OF PRESCREENING AND TREATING BREAST CANCERS WITH SELECTIVE ANDROGEN RECEPTOR MODULATORS” (priority 2021, published 2022)
